Results published in patent publication US20170334899A1, “AMINO-SUBSTITUTED ISOTHIAZOLES” (Bayer Pharma Aktiengesellschaft, priority 2014, published 2017).
Where two headings read alike, the source gives them in different places.

Columns and labels:
[1] = target: T1, CDK2/CycE (Homo sapiens, UniProt P24941); assay: CDK2/CycE kinase assay (TR-FRET); type: biochemical; conditions: avg, read-out: CDK2 avg (IC50 [mol/l])
T1 construct: GST; purchased ProQinase GmbH (Freiburg, Germany); host or cells: insect cells (Sf9)
Description: CDK2/CycE -inhibitory activity of compounds of the present invention was quantified employing the CDK2/CycE TR-FRET assay as described in the following paragraphs.
Recombinant fusion proteins of GST and human CDK2 and of GST and human CycE, expressed in insect cells (Sf9) and purified by Glutathion-Sepharose affinity chromatography, were purchased from ProQinase GmbH (Freiburg, Germany). As substrate for the kinase reaction biotinylated peptide biotin-Ttds-YISPLKSPYKISEG (C-terminus in amid form) was used which can be purchased e.g. form the company JERINI peptide technologies (Berlin, Germany).
For the assay 50 nl of a 100fold concentrated solution of the test compound in DMSO was pipetted into a black low volume 384we11 microtiter plate (Greiner Bio-One, Frickenhausen, Germany), 2 μl of a solution of CDK2/CycE in aqueous assay buffer [50 mM Tris/HCl pH 8.0, 10 mM MgCl2, 1.0 mM dithiothreitol, 0.1 mM sodium ortho-vanadate, 0.01% (v/v) Nonidet-P40 (Sigma)] were added and the mixture was incubated for 15 min at 22° C. to allow pre-binding of the test compounds to the enzyme before the start of the kinase reaction. Then the kinase reaction was started by the addition of 3 μl of a solution of adenosine-tri-phosphate (ATP, 16.7 μM=>final conc. in the 5 μl assay volume is 10 μM) and substrate (1.25 μM=>final conc. in the 5 μl assay volume is 0.75 μM) in assay buffer and the resulting mixture was incubated for a reaction time of 25 min at 22° C. The concentration of CDK2/CycE was adjusted depending of the activity of the enzyme lot and was chosen appropriate to have the assay in the linear range, typical concentrations were in the range of 130 ng/ml. The reaction was stopped by the addition of 5 μl of a solution of TR-FRET detection reagents (0.2 μM streptavidine-XL665 [Cisbio Bioassays, Codolet, France] and 1 nM anti-RB(pSer807/pSer811)-antibody from BD Pharmingen [#558389] and 1.2 nM LANCE EU-W1024 labeled anti-mouse IgG antibody [Perkin-Elmer, product no. AD0077, as an alternative a Terbium-cryptate-labeled anti-mouse IgG antibody from Cisbio Bioassays can be used]) in an aqueous EDTA-solution (100 mM EDTA, 0.2% (w/v) bovine serum albumin in 100 mM HEPES/NaOH pH 7.0).
The resulting mixture was incubated 1 h at 22° C. to allow the formation of complex between the phosphorylated biotinylated peptide and the detection reagents. Subsequently the amount of phosphorylated substrate was evaluated by measurement of the resonance energy transfer from the Eu-chelate to the streptavidine-XL. Therefore, the fluorescence emissions at 620 nm and 665 nm after excitation at 350 nm was measured in a TR-FRET reader, e.g. a Rubystar (BMG Labtechnologies, Offenburg, Germany) or a Viewlux (Perkin-Elmer). The ratio of the emissions at 665 nm and at […] was taken as the measure for the amount of phosphorylated substrate. The data were normalised (enzyme reaction without inhibitor=0% inhibition, all other assay components but no enzyme=100% inhibition).

[2] = test system: HeLa; assay: Proliferation assay (crystal violet), HeLa; type: cell-based; conditions: HeLa cells, 4 days incubation, crystal violet staining, read-out: IC50 inhibition of proliferation, HeLa
Method in brief: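 Crystal violet proliferation readout, 4-day compound incubation, 0.001–10 μM, final DMSO 0.5%. Zero-point plate stained at time of dosing set as 0%, untreated control as 100%; IC50 via 4-parameter fit.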

| IC50 [1] | IC50 ([2]; Homo sapiens, HeLa, 96 h) | IC50 [2] | Structure (SMILES) |
| --- | --- | --- | --- |
| ≥ 20 µM | 0.6 µM | – | Cc1nsc(Nc2ccc(C#N)cn2)c1C(=O)Nc1ccc(Oc2cccc(C(F)(F)F)c2)nc1 [Example 118, 5-[(5-Cyanopyridin-2-yl)amino]-3-methyl-N-{6-[3-(trifluoromethyl)phenoxy]pyridin-3-yl}-1,2-thiazole-4-carboxamide] |
| > 20 µM | > 10 µM | – | Cc1nsc(Nc2cnc3ccccc3n2)c1C(=O)Nc1ccc(NC2CC2)nc1 [Example 172, N-[6-(cyclopropylamino)pyridin-3-yl]-3-methyl-5-(quinoxalin-2-ylamino)-1,2-thiazole-4-carboxamide] |
| > 20 µM | 2.8 µM | – | Cc1nsc(Nc2ccc(C#N)cn2)c1C(=O)Nc1cccc(S(C)(=O)=O)c1 [Example 150, 5-[(5-cyanopyridin-2-yl)amino]-3-methyl-N-[3-(methylsulfonyl)phenyl]-1,2-thiazole-4-carboxamide] |
| ≥ 20 µM | 10 µM | – | Cc1nsc(Nc2cnc3ccccc3n2)c1C(=O)Nc1cccc(C(=O)NCC(=O)O)c1 [Example 99, N-[3-({[3-Methyl-5-(quinoxalin-2-ylamino)-1,2-thiazol-4-yl]carbonyl}amino)benzoy]-glycine] |
| > 20 µM | > 10 µM | – | Cc1nsc(Nc2cnc3ccccc3n2)c1C(=O)Nc1ccc(C(=O)NCCN2CCCC(F)(F)C2)cc1 [Example 156, N-(4-{[2-(3,3-difluoropiperidin-1-yl)ethyl]carbamoyl}phenyl)-3-methyl-5-(quinoxalin-2-ylamino)-1,2-thiazole-4-carboxamide] |
| > 20 µM | > 10 µM | – | Cc1nsc(Nc2ccc(C#N)cn2)c1C(=O)Nc1ccc(N[C@@H](C)C(=O)OC(C)(C)C)nc1 [Example 170, tert-butyl N-{5-[({5-[(5-cyanopyridin-2-yl)amino]-3-methyl-1,2-thiazol-4-yl}carbonyl)amino]pyridin-2-yl}alaninate] |
| ≥ 20 µM | 10 µM | – | Cc1nsc(Nc2cnc3ccccc3n2)c1C(=O)Nc1cccc(C(=O)N2CCNCC2)c1 [Example 101, 3-Methyl-N-[3-(piperazin-1-ylcarbonyl)phenyl]-5-(quinoxalin-2-ylamino)-1,2-thiazole-4-carboxamide] |
| > 20 µM | 0.23 µM | – | Cc1nsc(Nc2cnc(C(F)(F)F)cn2)c1C(=O)Nc1ccc(OC[C@@H]2CCN(CC(F)(F)F)C2)nc1 [Example 128, 3-Methyl-N-(6-{[(3R)-1-(2,2,2-trifluoroethyl)pyrrolidin-3-yl]methoxy}pyridin-3-yl)-5-{[5-(trifluoromethyl)pyrazin-2-yl]amino}-1,2-thiazole-4-carboxamide] |
| ≥ 20 µM | 1.1 µM | – | Cc1nsc(Nc2cnc(C(F)(F)F)cn2)c1C(=O)Nc1ccc(C(=O)OC(C)(C)C)cc1 [Example 96, tert-Butyl 4-{[(3-methyl-5-{[5-(trifluoromethyl)pyrazin-2-yl]amino}-1,2-thiazol-4-yl)carbonyl]amino}benzoate] |
| > 20 µM | 0.32 µM | – | CCCN1CC[C@H](Oc2ccc(NC(=O)c3c(C)nsc3Nc3cnc(C(F)(F)F)cn3)cn2)[C@H](F)C1 [Example 147, N-(6-{[(3R,4S)-3-fluoro-1-propylpiperidin-4-yl]oxy}pyridin-3-yl)-3-methyl-5-{[5-(trifluoromethyl)pyrazin-2-yl]amino}-1,2-thiazole-4-carboxamide] |
| > 20 µM | 0.14 µM | – | Cc1nsc(Nc2cnc(C(F)(F)F)cn2)c1C(=O)Nc1ccc(O[C@@H]2CCN(CC(F)(F)F)C[C@@H]2F)nc1 [Example 138, N-(6-{[(3S,4R)-3-fluoro-1-(2,2,2-trifluoroethyl)piperidin-4-yl]oxy}pyridin-3-yl)-3-methyl-5-{[5-(trifluoromethyl)pyrazin-2-yl]amino}-1,2-thiazole-4-carboxamide] |
| > 20 µM | 3.2 µM | – | Cc1nsc(Nc2cnc(C(F)(F)F)cn2)c1C(=O)Nc1ccc(C(=O)NC2CCN(CC(F)(F)F)CC2)cc1 [Example 165, 3-methyl-N-(4-{[1-(2,2,2-trifluoroethyl)piperidin-4-yl]carbamoyl}phenyl)-5-{[5-(trifluoromethyl)pyrazin-2-yl]amino}-1,2-thiazole-4-carboxamide] |
| ≥ 20 µM | – | 0.84 µM | Cc1nsc(Nc2cnc(C(F)(F)F)cn2)c1C(=O)Nc1ccc(F)c(OCC2CCCN(CC(F)F)C2)c1 (stereo not drawn) [Example 335, N-(3-{[1-(2,2-difluoroethyl)piperidin-3-yl]methoxy}-4-fluorophenyl)-3-methyl-5-{[5-(trifluoromethyl)pyrazin-2-yl]amino}-1,2-thiazole-4-carboxamide] |
| > 20 µM | > 10 µM | – | COc1ccc(NC(=O)c2c(C)nsc2Nc2ccc(C#N)cn2)c(N2CCOCC2)n1 [Example 173, 5-[(5-cyanopyridin-2-yl)amino]-N-[6-methoxy-2-(morpholin-4-yl)pyridin-3-yl]-3-methyl-1,2-thiazole-4-carboxamide] |
| ≥ 20 µM | 0.28 µM | – | Cc1nsc(Nc2cnc(C(F)(F)F)cn2)c1C(=O)Nc1ccc(OC2CCN(CC(F)F)CC2)nc1 [Example 8, N-(6-{[1-(2,2-Difluoroethyl)piperidin-4-yl]oxy}pyridin-3-yl)-3-methyl-5-{[5-(trifluoromethyl)pyrazin-2-yl]amino}-1,2-thiazole-4-carboxamide] |
| > 20 µM | > 10 µM | – | Cc1nsc(Nc2cnc3cc(F)ccc3n2)c1C(=O)Nc1ccc(S(N)(=O)=O)cc1 [Example 149, 5-[(6-fluoroquinoxalin-2-yl)amino]-3-methyl-N-(4-sulfamoylphenyl)-1,2-thiazole-4-carboxamide] |
| ≥ 20 µM | 3 µM | – | Cc1nsc(Nc2cnc3ccccc3n2)c1C(=O)Nc1cccc(-c2nnc(C(C)(C)C)o2)c1 [Example 107, N-[3-(5-tert-Butyl-1,3,4-oxadiazol-2-yl)phenyl]-3-methyl-5-(quinoxalin-2-ylamino)-1,2-thiazole-4-carboxamide] |
| ≥ 20 µM | 0.36 µM | – | Cc1nsc(Nc2cnc(C(F)(F)F)cn2)c1C(=O)Nc1ccc(OCC2CCN(CCC(F)(F)F)C2)nc1 (stereo not drawn) [Example 124, 3-methyl-5-{[5-(trifluoromethyl)pyrazin-2-yl]amino}-N-(6-{[1-(3,3,3-trifluoropropyl)pyrrolidin-3-yl]methoxy}pyridin-3-yl)-1,2-thiazole-4-carboxamide] |
| > 20 µM | 3.3 µM | – | Cc1nsc(Nc2cnc(C(F)(F)F)cn2)c1C(=O)Nc1ccc(OC2CCN(C(C)C)CC2)nc1 [Example 160, N-{6-[(1-isopropylpiperidin-4-yl)oxy]pyridin-3-yl}-3-methyl-5-{[5-(trifluoromethyl)pyrazin-2-yl]amino}-1,2-thiazole-4-carboxamide] |
| ≥ 20 µM | 0.91 µM | – | Cc1nsc(Nc2cncc(C(F)(F)F)n2)c1C(=O)Nc1ccc(OC2CCN(C(=O)OC(C)(C)C)CC2)nc1 [Example 12, tert-Butyl 4-[(5-{[(3-methyl-5-{[6-(trifluoromethyl)pyrazin-2-yl]amino}-1,2-thiazol-4-yl)carbonyl]amino}pyridin-2-yl)oxy]piperidine-1-carboxylate] |
| > 20 µM | 4.3 µM | – | Cc1nsc(Nc2cncc(C(F)(F)F)n2)c1C(=O)Nc1ccc(C(=O)NC2CCN(CC(F)(F)F)CC2)cc1 [Example 167, 3-methyl-N-(4-{[1-(2,2,2-trifluoroethyl)piperidin-4-yl]carbamoyl}phenyl)-5-{[6-(trifluoromethyl)pyrazin-2-yl]amino}-1,2-thiazole-4-carboxamide] |
